Values of other authors in patent publication US20230035389A1, “ANTIVIRAL COMPOSITION BASED ON EXTRACTS OF […] […] USEFUL FOR TREATING LESIONS CAUSED BY […] VIRUS” (PONTIFICIA UNIVERSIDAD CATOLICA DE CHILE, priority 2019, published 2023).

Test system: herpes simplex virus
Settings: topical, background statement

**Q.** Which “Reduction of the duration of herpetic lesions” value does the source give for `Nc1nc2c(ncn2COCCO)c(=O)[nH]1` [Acyclovir] here?
**A.** The value was 1.0 days.
